Data: the supplement of paper PMC10307832

Tests used:
Assay in all cases: relative viability (nuclei count vs DMSO), 5 days (fraction); higher = more cells survive
[1] = compound: CC(=O)c1c(C)c2cnc(Nc3ccc(N4CCNCC4)cn3)nc2n(C2CCCC2)c1=O [Palbociclib] + C[C@]1(O)C[C@@H](c2nc(-c3ccc4ccc(-c5ccccc5)nc4c3)c3c(N)nccn32)C1 [Linsitinib] (partner 1 µM)
Summary of the method: (§1)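 Five library-drug doses in √10 steps were combined with a fixed anchor-drug dose, or a single drug was given alone, by pin tool to lung cancer cell lines in 1536-well plates the day after seeding. Nuclei were stained and counted after 5 days. Relative viability is the nuclei count in treated wells over that in vehicle wells, taken as the median of duplicate plates.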

[2] = compound: CC(=O)c1c(C)c2cnc(Nc3ccc(N4CCNCC4)cn3)nc2n(C2CCCC2)c1=O [Palbociclib] + N=C(N)NC(=N)NCCc1ccccc1 [Phenformin] (partner 250 µM)
Summary of the method: as §1

[3] = compound: CC(=O)c1c(C)c2cnc(Nc3ccc(N4CCNCC4)cn3)nc2n(C2CCCC2)c1=O [Palbociclib] + Cc1nc(NC(=O)N2CCC[C@H]2C(N)=O)sc1-c1ccnc(C(C)(C)C(F)(F)F)c1 [Alpelisib] (partner 2 µM)
Summary of the method: as §1

[4] = compound: CC(=O)c1c(C)c2cnc(Nc3ccc(N4CCNCC4)cn3)nc2n(C2CCCC2)c1=O [Palbociclib] + O=C(c1cc(Cc2n[nH]c(=O)c3ccccc23)ccc1F)N1CCN(C(=O)C2CC2)CC1 [Olaparib] (partner 8 µM)
Summary of the method: as §1

Cell Line | relative viability ([1]; first compound 0.01 µM) | relative viability ([1]; first compound 0.03162 µM) | relative viability ([1]; first compound 0.1 µM) | relative viability ([1]; first compound 0.3162 µM) | relative viability ([1]; first compound 1 µM) | relative viability ([2]; first compound 0.01 µM) | relative viability ([2]; first compound 0.03162 µM) | relative viability ([2]; first compound 0.1 µM) | relative viability ([2]; first compound 0.3162 µM) | relative viability ([2]; first compound 1 µM) | relative viability ([3]; first compound 0.01 µM) | relative viability ([3]; first compound 0.03162 µM) | relative viability ([3]; first compound 0.1 µM) | relative viability ([3]; first compound 0.3162 µM) | relative viability ([3]; first compound 1 µM) | relative viability ([4]; first compound 0.01 µM) | relative viability ([4]; first compound 0.03162 µM) | relative viability ([4]; first compound 0.1 µM) | relative viability ([4]; first compound 0.3162 µM) | relative viability ([4]; first compound 1 µM)
201T | 1.01 | 0.97 | 0.901 | 0.938 | 0.716 | 0.469 | 0.359 | 0.359 | 0.381 | 0.311 | 0.995 | 1.04 | 0.884 | 0.974 | 0.728 | 0.817 | 0.819 | 0.781 | 0.684 | 0.65
A549 | 0.619 | 0.38 | 0.316 | 0.457 | 0.274 | 0.205 | 0.0665 | 0.11 | 0.129 | 0.096 | 0.741 | 0.651 | 0.486 | 0.356 | 0.254 | 0.345 | 0.0522 | 0.282 | 0.3 | 0.231
A-427 | 1.15 | 1.08 | 1.01 | 0.942 | 0.806 | 0.392 | 0.2 | 0.282 | 0.269 | 0.212 | 1.08 | 0.951 | 0.929 | 0.893 | 0.816 | 0.737 | 0.626 | 0.514 | 0.514 | 0.391
ABC-1 | 1.06 | 0.925 | 0.666 | 0.583 | 0.382 | 0.227 | 0.202 | 0.232 | 0.233 | 0.24 | 1.28 | 0.91 | 0.785 | 0.751 | 0.412 | 0.89 | 0.757 | 0.602 | 1.04 | 0.898
BEN | 1.14 | 0.759 | 0.618 | 0.747 | 0.497 | 0.285 | 0.243 | 0.237 | 0.249 | 0.257 | 1.04 | 0.847 | 0.634 | 0.834 | 0.499 | 1.01 | 0.992 | 0.615 | 0.945 | 0.594
CAL-12T | 0.9 | 0.699 | 0.768 | 0.679 | 0.56 | 0.603 | 0.475 | 0.429 | 0.421 | 0.324 | 1.11 | 1.05 | 0.84 | 0.652 | 0.603 | 0.667 | 0.675 | 0.577 | 0.531 | 0.505
COR-L23 | 0.9 | 0.844 | 0.637 | 0.552 | 0.344 | 0.438 | 0.37 | 0.304 | 0.345 | 0.263 | 0.671 | 0.535 | 0.516 | 0.37 | 0.311 | 0.312 | 0.271 | 0.233 | 0.194 | 0.175
COR-L 105 | 0.987 | 0.91 | 0.509 | 0.571 | 0.429 | 0.467 | 0.54 | 0.381 | 0.385 | 0.33 | 0.916 | 0.888 | 0.792 | 0.7 | 0.444 | 0.711 | 0.552 | 0.564 | 0.475 | 0.432
Calu-6 | 0.982 | 0.921 | 0.784 | 0.746 | 0.578 |  |  |  |  |  | 0.817 | 0.864 | 0.751 | 0.695 | 0.465 | 0.612 | 0.549 | 0.511 | 0.528 | 0.417
ChaGo-K-1 |  |  |  |  |  | 0.484 | 0.376 | 0.503 | 0.458 | 0.524 |  |  |  |  |  | 0.423 |  | 0.437 | 0.467 | 0.444
EBC-1 | 0.923 | 0.843 | 0.647 | 0.554 | 0.293 |  |  |  |  |  | 0.786 | 0.774 | 0.573 | 0.409 | 0.184 | 0.696 | 0.647 | 0.452 | 0.514 | 0.241
EKVX | 1.01 | 0.786 | 0.722 | 0.781 | 0.492 | 0.23 | 0.192 | 0.238 | 0.245 | 0.145 | 1.04 | 0.716 | 0.661 | 0.604 | 0.401 | 0.915 |  | 0.647 | 0.608 | 0.438
EMC-BAC-2 | 0.815 | 0.709 | 0.712 | 0.651 | 0.594 | 0.537 | 0.394 | 0.401 | 0.374 | 0.342 | 0.738 | 0.646 | 0.602 | 0.665 | 0.508 | 0.511 | 0.48 | 0.506 | 0.51 | 0.448
EPLC-272H | 1.15 |  | 0.988 | 0.999 | 0.716 | 0.316 |  | 0.265 | 0.291 | 0.198 | 1.13 |  | 0.808 | 0.69 | 0.658 | 0.779 | 0.807 | 0.681 | 0.615 | 0.313
H3255 | 1.16 | 0.873 | 0.844 | 0.775 | 0.514 | 0.38 | 0.361 | 0.319 | 0.368 | 0.287 | 0.714 | 0.599 | 0.469 | 0.488 | 0.36 | 0.646 | 0.547 | 0.458 | 0.493 | 0.373
HARA | 1.02 | 0.78 | 0.83 | 0.454 | 0.361 | 0.509 |  | 0.309 | 0.258 | 0.203 | 0.82 | 0.718 | 0.557 | 0.405 | 0.31 | 0.673 | 0.596 | 0.524 | 0.852 | 0.344

Cell Line | relative viability ([1]; first compound 0.01 µM) | relative viability ([1]; first compound 0.03162 µM) | relative viability ([1]; first compound 0.1 µM) | relative viability ([1]; first compound 0.3162 µM) | relative viability ([1]; first compound 1 µM) | relative viability ([2]; first compound 0.01 µM) | relative viability ([2]; first compound 0.03162 µM) | relative viability ([2]; first compound 0.1 µM) | relative viability ([2]; first compound 0.3162 µM) | relative viability ([2]; first compound 1 µM) | relative viability ([3]; first compound 0.01 µM) | relative viability ([3]; first compound 0.03162 µM) | relative viability ([3]; first compound 0.1 µM) | relative viability ([3]; first compound 0.3162 µM) | relative viability ([3]; first compound 1 µM) | relative viability ([4]; first compound 0.01 µM) | relative viability ([4]; first compound 0.03162 µM) | relative viability ([4]; first compound 0.1 µM) | relative viability ([4]; first compound 0.3162 µM) | relative viability ([4]; first compound 1 µM)
HCC-15 | 0.966 |  | 0.832 | 0.755 | 0.726 | 0.463 |  | 0.405 | 0.421 | 0.323 | 0.878 |  | 0.793 | 0.719 | 0.704 | 0.788 |  | 0.626 | 0.651 | 0.598
HCC-44 | 0.661 | 0.648 | 0.691 | 0.679 | 0.661 | 0.234 |  | 0.171 | 0.223 | 0.204 | 0.728 | 0.789 | 0.819 | 0.798 | 0.774 | 0.945 | 0.952 | 1 | 0.965 | 1.01
HCC-78 | 0.46 | 0.329 | 0.302 | 0.39 | 0.273 | 0.727 | 0.624 | 0.554 | 0.44 | 0.318 | 0.305 | 0.242 | 0.217 | 0.263 | 0.216 | 1.05 | 0.661 | 0.695 | 0.636 | 0.369
HCC-366 | 0.482 |  | 0.506 | 0.494 | 0.344 | 0.626 |  | 0.645 | 0.427 | 0.396 | 0.517 |  | 0.345 | 0.209 | 0.204 | 0.376 |  | 0.384 | 0.335 | 0.215
HCC-827 | 0.945 | 0.879 | 0.88 | 0.885 | 0.71 | 0.41 | 0.285 | 0.319 | 0.384 | 0.289 | 1.04 | 0.927 | 0.913 | 0.819 | 0.652 | 0.62 | 0.573 | 0.477 | 0.563 | 0.443
HOP-62 | 0.995 |  | 1.01 | 0.908 | 0.692 | 0.642 |  | 0.644 | 0.502 | 0.47 | 0.851 |  | 0.797 | 0.831 | 0.648 | 0.319 |  | 0.618 | 0.399 | 0.452
LC-2-ad | 0.884 |  | 0.735 | 0.611 | 0.395 | 0.573 |  | 0.523 | 0.414 | 0.383 | 0.876 |  | 0.701 | 0.641 | 0.463 | 0.744 | 0.71 | 0.688 | 0.642 | 0.553
LCLC-97TM1 | 0.185 |  | 0.167 | 0.165 | 0.158 | 0.41 | 0.32 | 0.414 | 0.351 | 0.227 | 0.291 |  | 0.189 | 0.209 | 0.189 | 0.326 |  | 0.308 | 0.311 | 0.262
NCI-H522 |  |  |  |  |  | 0.623 | 0.592 | 0.586 | 0.644 | 1.19 |  |  |  |  |  | 0.642 | 0.612 | 0.689 | 0.678 | 0.616
NCI-H1299 | 0.961 | 0.983 | 0.908 | 0.866 | 0.685 |  |  |  |  |  | 1 | 1.02 | 0.949 | 0.956 | 0.865 | 0.925 | 0.924 | 0.886 | 0.79 | 0.65
NCI-H1563 | 1.19 | 1.25 | 1.15 | 1 | 0.887 | 0.709 | 0.636 | 0.639 | 0.654 | 0.537 | 0.896 | 0.887 | 0.897 | 0.808 | 0.765 |  |  |  |  | 
NCI-H1650 |  |  |  |  |  | 0.45 | 0.251 | 0.289 | 0.348 | 0.233 |  |  |  |  |  | 0.795 | 0.562 | 0.551 | 0.642 | 0.513
NCI-H2170 |  |  |  |  |  | 0.418 | 0.352 | 0.351 | 0.34 | 0.304 | 0.797 | 0.767 | 0.776 | 0.715 | 0.601 | 0.675 | 0.61 | 0.551 | 0.488 | 0.436
NCI-H2342 |  |  |  |  |  | 0.569 | 0.555 | 0.477 | 0.564 | 0.441 |  |  |  |  |  | 0.497 | 0.504 | 0.375 | 0.422 | 0.419
SW 900 |  |  |  |  |  | 0.632 |  | 0.435 | 0.448 | 0.298 |  |  |  |  |  | 0.914 |  | 0.975 | 0.865 | 0.725
